US20140004209A1, “AUTOPHAGY INDUCER AND INHIBITOR COMBINATION THERAPY FOR THE TREATMENT OF NEOPLASMS” (GENENTECH, INC., priority 2010, published 2014)
“Also recorded” adds a separate entry of the source.

Tests used:
[1] = test system: 537MEL melanoma cell line; test: Autophagy (Acridine Orange) and apoptosis (AnnV/PI) induction with CQ; assay type: cell-based
Source text: (§1) FIGS. 32A-B and 34A-B depict data showing correlation between Autophagy induction and apoptosis induction when each compound is combined with CQ at 24 hrs after the given compound treatment measured by Acridine Orange staining in 537MEL melanoma cell line and SKBR3Breast cancer cell line, respectively. Control was DMSO.
(§2) FIGS. 33A-G and 35A-G show dose response curve of apoptosis induction in 537MEL melanoma and SKBR3Breast cancer cells, respectively, treated with the indicated compound alone or with 10 μM CQ, measured by Annezin V (AnnV) and Propidium iodide (PI) staining.

[2] = test system: SKBR3Breast cancer cell line; test: as above; assay type: cell-based
Source text: as §1, §2

PC3 xenograft tumors = test: PC3 xenograft tumor growth; assay type: in vivo, mice
Experimental: Xenograft study: Six- to 8-week-old female athymic nude nu/nu mice were purchased from Charles River Laboratories and maintained in Genentech's conventional animal facility. Mice were injected in the right flank with 5˜7.5×10^6 cells resuspended in 200 μl Hank's Balanced Salt Solution (Invitrogen). When tumors reached a mean volume of 100˜300 mm^3 the mice with similarly-sized tumors were grouped into treatment cohorts. […] Amber-colored water bottles were used and were changed 3 times per week. […] Tumors were measured with calipers and mice weighed twice per week. Mice whose tumors reached 2000 mm^3 or lost more than 20% body weight were euthanized. Between 8˜10 mice were used for each treatment group. Statistical significance was analyzed using the JMP software (SAS Institute, Inc.).
We next examined the effect of Akt KDs on the ability of PC3 cells to maintain the growth of established tumors in vivo.

PC3 cells [3] = test: Mitochondrial superoxide (MitoSOX red) and cellular ROS in PC3 cells; assay type: cell-based, human
Experimental: (B) PC3 cells treated as in A were stained with the Image-iT LIVE green ROS Detection kit and examined by fluorescence microscopy at 24 h. […] (C) Quantification of MitoSOX red and ROS green fluorescence intensities by flow cytometry at 24 h. Cells were treated as in A and B. Error bars represent SEM (n=3).
Because mitochondria are the primary intracellular source of superoxide (O2^−) generation, we analyzed O2^− production using MitoSOX red, an O2^− indicator that accumulates in the mitochondria as a function of membrane potential and fluoresces upon oxidation and subsequent binding to DNA.

PC3 cells [4] = test: Immunoblot of LAMP1, cathepsin D and p62 in PC3 cells; assay type: cell-based, human
Source text: (§3) Western blot analysis, immunofluorescence, 1HC and TUNEL assay: For Western blot analysis, total protein lysates were subjected to SDS-PAGE and transferred to nitrocellulose. Antibodies used were: anti-Akt1, anti-Akt2, anti-Akt3, anti-total-Akt, anti-p-Akt (Ser473), anti-p-Akt (Thr308), anti-p-S6 (Ser235/236), anti-PARP and anti-cleaved caspase-3 (Cell Signaling Technology); anti-p-PRAS40 (Invitrogen); anti-p27^Kip1 (Santa Cruz Biotechnology); anti-LC3 (Novus); anti-LAMP2 and anti-Cathepsin D (BD Biosciences); and anti-GAPDH (Advanced Immunochemical Inc.). […] Detection and quantification were performed using an Odyssey infrared scanner (LICOR) using the manufacturer's software. For immunofluorescence staining, cells were fixed in 3% paraformaldehyde and permeabilized with 0.01% digitonin in PBS, followed by a rabbit polyclonal anti-LC3 (Abgent) primary antibody detected with a cy3-conjugated anti-rabbit secondary antibody (Jackson Immunoresearch). For IHC, formalin-fixed, paraffin-embedded specimens were collected. 5-μm-thick paraffin-embedded sections were stained using an anti-Ki-67 (MIB-1, DakoCytomation) antibody with the Dako ARK kit (Dako Corporation). Tissues were counterstained with haematoxylin, dehydrated, and mounted. In all cases, antigen retrieval was performed with the Dako Target Retrieval Kit as per manufacturer's instructions. For TUNEL assay, formalin-fixed, paraffin-embedded sections were stained using an in situ cell death detection kit (POD; Roche Diagnostic) according to the manufacturer's instructions.
Because autophagy is a key function of the lysosomal compartment (Terman, A., B. Gustafsson, and U. T. Brunk, (2006), The lysosomal-mitochondrial axis theory of postmitotic aging and cell death. Chem Biol Interact. 163:29-37), we examined the lysosomal marker LAMPI and cathepsin D, the predominant lysosomal aspartic protease, by immunoblotting (FIG. 6, B and C). […] Cathepsin D is synthesized as a 43-kD preprocathepsin D that is cleaved cotranslationally and glycosylated to form a 46-kD procathepsin D, which is targeted to lysosomes yielding an intermediate that is further cleaved into a mature enzyme consisting of a 15-kD light chain and a 28-kD heavy chain.

PC3 cells [5] = test: Autophagy markers in PC3 cells (EM AVs, GFP-LC3, LC3-II/LC3-I, MDC, AO); assay type: cell-based, human
Experimental: as §3, with “nitrocellulose.” for “nitrocellulose. Antibodies used were: anti-Akt1, anti-Akt2, anti-Akt3, anti-total-Akt, anti-p-Akt (Ser473), anti-p-Akt (Thr308), anti-p-S6 (Ser235/236), anti-PARP and anti-cleaved caspase-3 (Cell Signaling Technology); anti-p-PRAS40 (Invitrogen); anti-p27^Kip1 (Santa Cruz Biotechnology); anti-LC3 (Novus); anti-LAMP2 and anti-Cathepsin D (BD Biosciences); and anti-GAPDH (Advanced Immunochemical Inc.).”
Ultrathin sections were stained with uranyl acetate and lead citrate. Numbers of AV were counted on systematically sampled cytoplasmic areas of 4.5 μm^2 (n≧64 per condition). The percent AV area was measured by means of a square mesh grid laid over ≧5 sets of systematically sampled micrographs with each set covering a cytoplasmic area ≧80 μm^2. The average percent of apoptotic nuclei in tumor tissues was calculated from the number of apoptotic nuclei in 3 to 4 sets of 100 systematically counted tumor cell nuclei.
Multispectral imaging flow cytometry: Cells treated with various agents were stained with Acridine Orange and analyzed by the ImageStream system (Amnis Corporation, Seattle, Wash.) using the IDEAS image analysis program. The DNA AOGreen image and the vacuolar AO Red image were first compensated into separate channels, and then the percentage of apoptotic/anucleate cells (based on AO nuclear morphology and intensity) and vacuolated cells (AO Red+) were quantified. […] AORed Intensity is plotted on the second histogram with an arbitrary gate (R5) drawn to include events with the brightest AO Red intensity.

PC3 cells [6] = test: Mitochondrial membrane potential (MitoPT dye) in PC3 cells; assay type: cell-based, human; conditions: 0.5% FBS
Experimental: FIG. 21. […] Images at 48 h are shown. […] Merged images between red and green channels are also shown (MitoPT-M). Scale bar: 20 μm. (B) Percentage of cells showing red punctate stains and diffuse green stains from treatments described in (A). >86 cells from two random fields of fluorescent images of each treatment were counted. Error bars represent standard deviations between the two fields. […] Total fluorescence intensity from all cells was collected using the Isocyte (Blueshift Biotechnologies), a laser scanning imager. Green fluorescence intensity is collected with a 488 nm laser and a 510-540 nm band pass filter, and normalized to cell number determined by Hoechst staining using a 405 nm laser and a 430-480 nm band pass filter. Error bars, standard deviation between two independent experiments. (D) Representative images of the green ROS signals and bright field (BF) taken under a Nikon TE300 inverted microscope. […] Scale bar: 20 μm.
Cell Culture and Reagents: The PTEN^−/− and PTEN^+/+ MEFs were maintained as previously described (Sun, H., R. Lesche, D. M. Li, J. Liliental, H. Zhang, J. Gao, N. Gavrilova, B. Mueller, X. Liu, and H. Wu, (1999), PTEN modulates cell cycle progression and cell survival by regulating phosphatidylinositol 3,4,5,-trisphosphate and Akt/protein kinase B signaling pathway. Proc Natl Acad Sci USA. 96:6199-204). The PC3 and U87MG cells were maintained at 37° C. and 5% CO2 in DMEM/Ham's F-12 (1:1) containing 10% tetracycline-free fetal bovine serum. II-4 was from Calbiochem (Akt inhibitor VIII) (Barnett, S. F., D. Defeo-Jones, S. Fu, P. J. Hancock, K. M. Haskell, R. E. Jones, J. A. Kahana, A. M. Kral, K. Leander, L. L. Lee, J. Malinowski, E. M. McAvoy, D. D. Nahas, R. G. Robinson, and H. E. Huber, (2005), Identification and characterization of pleckstrin-homology-domain-dependent and isoenzyme-specific Akt inhibitors. Biochem J. 385:399-408). […] Image-iT LIVE Green Reactive Oxygen Species Detection Kit was purchased from Molecular Probes. MitoPT Mitochondria Permeability Transition Detection Kit was purchased from Immunochemistry Technologies, LLC.

PC3 cells [7] = test: Time-lapse microscopy of PC3 cells; assay type: cell-based, human; conditions: 10 μM, 5% FBS, 3 d
Experimental: Time-lapse video microscopy: Cells cultured in 24-well plates were imaged on an Olympus IX81 inverted microscope under environmental control (37° C. and 5% CO2) for 3 days. Imaging started 6 hours after the addition of the compounds and was taken at 1-hour intervals.

[8] = Cell death in combination with CQ (FIG. 17); assay type: cell-based
[9] = Autophagic vacuole accumulation by side scatter (SSC) in a flow cytometer; assay type: cell-based
Source text: Inhibitors include 3-phenyl-2-(4-((4-(5-(pyridin-2-yl)-1H-1,2,4-triazol-3-yl)piperidin-1-yl)methyl)phenyl)-1,6-naphthyridin-5(6H)-one (II-3), benzyl 2-(4-(3-ethylureido)phenyl)-4-(1,4-oxazepan-4-yl)-5H-pyrrolo[3,4-d]pyrimidine-6(7H)-carboxylate (III-1); 1-ethyl-3-(4-(4-morpholino-7-(pyrimidin-2-yl)-5,6,7,8-tetrahydropyrido[3,4-d]pyrimidin-2-yl)phenyl)urea (III-2), (R)-1-(44(2-(2-aminopyrimidin-5-yl)-7-methyl-4-morpholinothieno[3,2-d]pyrimidin-6-yl)methyl)piperazin-1-yl)-2-hydroxypropan-1-one (III-3), 4-(2-(1H-indazol-4-yl)-6-((4-(methylsulfonyl)piperazin-1-yl)methyl)thieno[3,2-d]pyrimidin-4-yl)morpholine (III-6), (S)—N-(4-(benzo[d][1,3]dioxol-5-yl)thiazol-2-yl)-N-(3-(2-formylpiperidin-1-yl)propyl)thiophene-2-carboxamide (IV-2) and Rapamycin.
FIG. 14 depicts CQ (10 μM) increases the number and size of autophagic vacuoles when combined with the various mTOR, PI3K, and Akt inhibitors.

[10] = 24 hrs, Acridine Orange staining

O=C(NOC[C@H](O)CO)c1ccc(F)c(F)c1Nc1ccc(I)cc1F [VII, (R)—N-(2,3-dihydroxypropoxy)-3,4-difluoro-2-(2-fluoro-4-iodophenylamino)benzamide]
apoptosis induction when combined with CQ ([1]; 10 μM CQ, AnnV and PI staining): no synergistic apoptosis induction is shown when combined with CQ; also recorded: CQ does not induce apoptosis in cancer cells
autophagy induction [1, 10]: does not induce an increase in autophagy
apoptosis induction when combined with CQ ([2]; 10 μM CQ, AnnV and PI staining): no synergistic apoptosis induction is shown when combined with CQ; also recorded: CQ does not induce apoptosis in cancer cells
autophagy induction [2, 10]: does not induce an increase in autophagy

CCN(CC)CCCC(C)Nc1ccnc2cc(Cl)ccc12 (stereo not shown) [CQ, chloroquine]
tumors with stasis maintained throughout the study (PC3 xenograft tumors; PC3-shAkt123 xenograft, both Dox and CQ): 20%
tumors with complete regression (PC3 xenograft tumors; PC3-shAkt123 xenograft, both Dox and CQ, intraperitoneal): 40%
incidence of complete tumor remission, CQ combined with Akt knockdown (PC3 xenograft tumors; mouse, in vivo): significantly increased the incidence of complete tumor remission; also recorded: increased the incidence of complete tumor remissions in vivo
MitoSOX fluorescence, agent alone (PC3 cells [3]): mild increase in MitoSOX signal
cellular ROS signal, agent alone (PC3 cells [3]): little effect on ROS levels
p62 level (PC3 cells [4]): increased the level of p62 both with and without Akti; also recorded: blocked p62 degradation both with and without II-4 treatment
AVO accumulation, agent alone (multispectral imaging flow cytometry) (PC3 cells [5]): induced AVO accumulation without significant loss of viability
induction of AV accumulation / autophagy, agent alone (PC3 cells [5]): induced accumulation of AVs
mitochondrial membrane potential, agent alone (PC3 cells [6]): did not have a significant effect
cell division and morphology, agent alone (PC3 cells [7]): mild decrease in cell division and a gradual accumulation of dark particles in the perinuclear region

CS(=O)(=O)N1CCN(Cc2cc3nc(-c4cccc5[nH]ncc45)nc(N4CCOCC4)c3s2)CC1 [III-6, 4-(2-(1H-indazol-4-yl)-6-((4-(methylsulfonyl)piperazin-1-yl)methyl)thieno[3,2-d]pyrimidin-4-yl)morpholine]
interaction with CQ on cell death [8]: synergize with CQ to accelerate cell death
autophagic vacuole accumulation (SSC), inhibitor alone [9]: induce increased autophagic vacuole accumulation
